Experiments:
[1] = system: PC‐3 (human prostate adenocarcinoma); experiment: Fluorometric cell viability assay (Resazurin), 2D monolayer; format: cell-based; conditions: PC‐3, 48 h
Protocol: (§1) The first step toward the biological investigation of complexes 3–8 was the evaluation of cell viability in monolayer cultures of CT‐26 (mouse colon adenocarcinoma), PC‐3 (human prostate adenocarcinoma), and RPE‐1 (human normal retina pigmented epithelial) cell lines using a fluorometric cell viability assay with the Resazurin reagent. Cisplatin and 1 were tested in the same cell lines as positive and additional controls.
(§2) Cell cultures: The CT‐26 cell line was cultured in DMEM media (Gibco) supplemented with 10 % foetal calf serum (Gibco) and 1 % penicillin‐streptomycin antibiotic (Gibco). The PC‐3 cell line was cultured in F12‐K media (Gibco) supplemented with 10 % foetal calf serum (Gibco) and 1 % Penicillin‐Streptomycin antibiotic (Gibco). The RPE‐1 cell line was cultured in DMEM/F‐12 media (Gibco) supplemented with 10 % foetal calf serum and 1 % Penicillin‐Streptomycin antibiotic (Gibco). Cell lines were maintained in a humidified atmosphere at 37 °C with 5 % CO2.
(§3) Cytotoxicity assay using a 2D cellular model: The cytotoxicity of the tested Ru complexes was assessed by a fluorometric cell viability assay using Resazurin (Acros Organics). Briefly, cells were seeded in triplicate in 96‐well plates at a 4×10^3 cells/ well density in 100 μL. After 24 h, cells were treated with increasing concentrations of the ruthenium complexes and controls. Dilutions for complexes 3–8 were prepared as follows: 10 mM stock solution in DMSO was diluted to 100–0.01 μM with medium. After 48 h of incubation, the medium was removed, and 100 μL of complete medium containing resazurin (0.2 mg/mL final concentration) was added. After 4 h of incubation at 37 °C, the fluorescence signal of the resorufin product was read (ex 540 nm, em 590 nm) in an Infinite 200 PRO Microplate Reader from TECAN. IC50 values were then calculated using GraphPad Prism software.

[2] = system: RPE‐1 (human normal retina pigmented epithelial); experiment: as above; format: cell-based; conditions: RPE‐1, 48 h
Protocol: as §1, §2, §3

[3] = system: CT‐26 (mouse colon adenocarcinoma); experiment: as above; format: cell-based; conditions: for IC50: CT‐26, 48 h
Protocol: as §1, §2, §3

[4] = system: CT‐26 cells; experiment: ICP‐MS cellular uptake; format: cell-based, mouse
Protocol: The cellular uptake of the complexes 3–8 was then investigated in CT‐26 cells by determining the amount of Ru inside the cells using inductively coupled plasma mass spectrometry (ICP‐MS) after 2 h of incubation at 5 μM. […] This is most probably due to the higher lipophilicity of the DIP ligand compared to phen. […] In contrast, the neutral complexes with the DIP ligand (3 and 5) present a lower uptake (ca. 50 %) compared the phen analogues 6 and 8. This observation is rather counter‐intuitive since compounds 3 and 5 have a higher cytotoxicity than 6 and 8. The lower uptake of the DIP complexes 3 and 5 might be due to the lower solubility of these complexes in the cell culture medium. However, taken together, the uptake and cytotoxicity data imply that 3 and 5 have a higher specific cytotoxic activity compared to the phen analogues 6 and 8, reasonably attributable to their higher lipophilicity.
ICP‐MS cellular uptake studies: CT‐26 cells were seeded at a density of 1×10^6. The next day, cells were treated with 5 μM of the corresponding complex diluted in the cell culture medium from a 10 mM stock solution in DMSO. After 2 h, cells were collected, counted, and stored at −80 °C. ICP‐MS samples were prepared as follows: samples were digested using 70 % nitric acid (1 mL, 60 °C, overnight) and then further diluted 1 : 100 (1 % HCl solution in MQ water) analysed using ICP‐MS. All ICP‐MS measurements were performed on an Agilent 7900 Quadrupole ICP‐MS located at the Institut de Physique du Globe de Paris (France). The monitored isotopes are 99 and 101 Ru. Daily, before the analytical sequence, an indium internal‐standard was injected after inline mixing with the samples to correct for signal drift and matrix effects. A set of calibration standards was analysed to confirm and model (through simple linear regression) the linear relationship between signal and concentration. The model was then used to convert measured sample counts to concentrations. Reported uncertainties were calculated using error propagation equations and considering the combination of standard deviation on replicated consecutive signal acquisitions (n=3), internal‐standard ratio and blank subtraction. The non‐linear term (internal‐standard ratio) was linearized using a first‐order Taylor series expansion to simplify error propagation. The amount of metal detected in the cell samples was transformed from ppb to μg of metal. Data were subsequently normalized to the number of cells and expressed as μmol of metal/number of cells.

[5] = Stability in human plasma (UV-Vis and HPLC); format: in vitro ADME; conditions: 37 °C
Protocol: The biological activity of anticancer drugs candidates is strongly influenced by their stability in DMSO, medium cell culture, and human plasma. For this reason, we performed stability studies of complexes 3–8 at 37 °C in DMSO and DMEM medium (Gibco) (Supporting Information Figures S1 ‐ S2). […] Finally, the stability of the compounds was investigated by incubating them in human plasma at 37 °C for 48 h, followed by UV‐Vis and HPLC analysis. […] After 48 h, only 15 % of the complex was still intact, as observed by HPLC (Supporting Information Figure S5).
Stock solutions of each complex (2 mM) and caffeine (2 mM) were prepared in dimethyl sulfoxide. 50 μL of both stock solutions (complex and caffeine) were added to 400 μL of human plasma, achieving 500 μL. The resulting solutions were incubated upon continuous gentle shaking (ca. 300 rpm) for 48 h at 37 °C. After this time, the incubation was ended by adding 1 mL of methanol. The mixture was centrifuged for 45 min at 3000 rpm and 4 °C. The solution was filtered through a 0.2 μm membrane filter and submitted to HPLC analysis, that were carried out on a Jupiter Proteo column (250×4.6 mm, 4 μm, flow rate: 1 mL/min). The solvents (HPLC grade) were Millipore water (solvent A) and acetonitrile (solvent B). […] The flow rate was 1 mL min^−1, and the chromatogram was detected at 215 nm.

[6] = system: several cancer cell lines; parameters: method as in PMID 32319768; conditions: cited from earlier work
[7] = system: CT‐26 cells; experiment: Mito stress test (Seahorse, oxygen consumption rate); format: cell-based, mouse; conditions: CT‐26, 24 h treatment; 1 (1 μM), 3 (5 μM), 4 (0.5 μM), 5 (10 μM), 6 (25 μM), 7 (10 μM), 8 (25 μM)
Protocol: To further study the mechanism of action of complexes 3–8, their influence on the cellular metabolism of CT‐26 cells was investigated. Figure 6 represents the Mito stress test profile after 24 h of treatment; the oxygen consumption rate (OCR) changes with specific electron‐transport chain inhibitors. Oligomycin (inhibitor of ATP synthase (complex V)), FCCP (uncoupling agent), antimycin‐A (complex III inhibitors), and rotenone (complex I inhibitor) were employed in this study. In general, both cationic compounds 4 and 7 affected the mitochondrial processes. It is evident from the low basal respiration and the inhibition of ATP production compared to untreated cells (orange dots) that the mitochondrial membrane of the cells treated with such complexes lost the capacity to restore the proton balance when treated with an uncoupling agent (FCCP). The maximal respiration (the OCR value when the mitochondrial membrane is uncoupled) and spare respiratory capacity (difference in the OCR values between maximal respiration and basal respiration) of the cells were reduced compared to those of untreated cells (Figure 6). […] The results with complex 4 are consistent with its measured large mitochondrial uptake (see above).
Metabolic studies: mito stress test: CT‐26 cells were seeded in Seahorse XFe 96‐ well plates at a density of 20 000 cells/well in 80 μL of the medium. After 24 h, the medium was replaced with fresh medium, and either complex 1 (1 μM), 3 (5 μM), 4 (0.5 μM), 5 (10 μM), 6 (25 μM), 7 (10 μM), or 8 (25 μM) was added. After 24 h of incubation, the regular medium was removed, and cells were washed three times using Seahorse base media and incubated in a non‐CO2 incubator at 37 °C for 1 h. A Mito stress assay was run using 1 μM oligomycin, 1 μM FCCP, and a mixture of 1 μM antimycin‐A/1 μM rotenone in ports A−C, respectively, using a Seahorse XFe96 extracellular flux analyser.

[8] = system: HeLa cells; parameters: method as in PMID 32065454; conditions: cited from earlier work
[9] = system: CT‐26 cells; experiment: Cellular fractionation (mitochondria and nucleus isolation, Ru content); format: cell-based, mouse; conditions: CT‐26, 5 μM, 4 h
Protocol: Additionally, we choose the best candidate from the cytotoxicity experiments, namely [Ru(DIP)2(η^2‐acac)]Cl (4), to explore its cellular localisation. For this, we performed cellular fractionation experiments to ascertain in which organelle it localizes.
Sample preparation for cellular fractionation: CT‐26 cells were seeded in three 15 cm^2 cell culture dishes and cells were 90 % confluent on the day of treatment. On the day of treatment, cells were incubated with the target complex at a concentration of 5 μM for 4 h, then the medium was removed and the cells were washed, collected, and counted. After re‐suspension in cold PBS, the organelles were isolated by using different protocols (one cell culture dish per isolation was used).
Mitochondria and nucleus isolation : To isolate mitochondria, a Mitochondria Isolation Kit (Cat. Nr: MITOISO2, SigmaAldrich) and Nucleus Isolation Kit (NUC‐101) were used according to the manufacturer procedure for the isolation of mitochondria via homogenization method.

[10] = system: cancer cells; parameters: method as in PMID 25313823; conditions: 2 h incubation; cited from earlier work
[11] = system: different tumour cells; parameters: method as in PMID 17199281; conditions: cited from earlier work

Compound | IC50 [1] [µM] | IC50 [2] [µM] | IC50 [3] [µM] | also measured
O=C([O-])C(=O)[O-].[Ru+2].c1cnc2c(c1)ccc1cccnc12.c1cnc2c(c1)ccc1cccnc12 [Compound 8, [Ru(phen)2(η^2‐ox)]] | > 100 | > 100 | > 100 | –
[Ru(DIP)2(η^2‐mal)] [Compound 3] | 4.92 ± 0.33 | 5 ± 0.7 | 5.63 ± 0.34 | lower uptake compared to the phen analogues 6 and 8 ([4]; CT‐26, 5 μM, 2 h): ca. 50%
O=C([O-])CC(=O)[O-].[Ru+2].c1cnc2c(c1)ccc1cccnc12.c1cnc2c(c1)ccc1cccnc12 [Compound 6, [Ru(phen)2(η^2‐mal)]] | > 100 | > 100 | > 100 | stability in human plasma (UV‐vis spectra and HPLC chromatograms before and after incubation) ([5]; 48 h): chemical transformation; complex still intact (HPLC) ([5]; after 48 h): 15%
N.N.[Cl][Pt][Cl] [cisplatin, reference compound] | 10.3 ± 1.14 | 20.1 ± 3.91 | 1.94 ± 0.72 | –
[Ru(DIP)2(sq)](PF6) [Compound 2] | – | – | – | cytotoxicity [6]: nanomolar concentration range
Cc1occc(=O)c1[O-].F[P-](F)(F)(F)(F)F.[Ru+2].c1ccc(-c2ccnc3c2ccc2c(-c4ccccc4)ccnc23)cc1.c1ccc(-c2ccnc3c2ccc2c(-c4ccccc4)ccnc23)cc1 [Compound 1, [Ru(DIP)2(mlt)](PF6), reference compound] | 1.84 ± 0.23 | 0.67 ± 0.14 | 0.37 ± 0.12 | effect on mitochondrial respiration (basal respiration, OCR profile) vs untreated cells [7]: severe impairment of mitochondrial respiration; subcellular accumulation [8]: accumulate more in the nucleus than in mitochondria
CC(=O)C=C(C)[O-].[Cl-].[Ru+2].c1ccc(-c2ccnc3c2ccc2c(-c4ccccc4)ccnc23)cc1.c1ccc(-c2ccnc3c2ccc2c(-c4ccccc4)ccnc23)cc1 [Compound 4, [Ru(DIP)2(η^2‐acac)]Cl] | 0.62 ± 0.19 | 0.5 ± 0.12 | 0.41 ± 0.1 | fraction detected in the nucleus (of the total amount of Ru) [9]: ca. 10%; localization in mitochondria (of the total amount of Ru) [9]: ca. 50%; cellular uptake compared to neutral DIP complexes 3 and 5 ([4]; CT‐26): at least three times larger; cellular uptake compared to phen counterpart 7 ([4]; CT‐26, 5 μM, 2 h): almost three times larger; cellular uptake compared to reference complex 1 ([4]; CT‐26, 5 μM, 2 h): ca. three times larger; cellular uptake (amount of Ru inside the cells) ([4]; CT‐26, 5 μM, 2 h incubation): most significant uptake; effect on mitochondrial respiration (basal respiration, OCR profile) vs untreated cells [7]: severe impairment of mitochondrial respiration; selectivity towards CT‐26 and PC‐3 cancer cell lines compared to healthy cell line RPE‐1 ([3]; from IC50 values, 48 h): no selectivity
[Ru(bpy)(phpy)(dppz)]^+ | – | – | – | complex accumulated in nuclei [10]: ~90%
[Ru+2].c1ccc(-c2ccnc3c2ccc2c(-c4ccccc4)ccnc23)cc1.c1ccc(-c2ccnc3c2ccc2c(-c4ccccc4)ccnc23)cc1.c1ccc2nc3c4cccnc4c4ncccc4c3nc2c1 [[Ru(DIP)2(dppz)]^2+] | – | – | – | inhibition against tumour cells [11]: low inhibition
CC(=O)C=C(C)[O-].[Cl-].[Ru+2].c1cnc2c(c1)ccc1cccnc12.c1cnc2c(c1)ccc1cccnc12 [Compound 7, [Ru(phen)2(η^2‐acac)]Cl] | > 100 | > 100 | 10.3 ± 0.74 | effect on mitochondrial respiration (basal respiration, OCR profile) vs untreated cells [7]: severe impairment of mitochondrial respiration
O=C([O-])C(=O)[O-].[Ru+2].c1ccc(-c2ccnc3c2ccc2c(-c4ccccc4)ccnc23)cc1.c1ccc(-c2ccnc3c2ccc2c(-c4ccccc4)ccnc23)cc1 [Compound 5, [Ru(DIP)2(η^2‐ox)]] | 21.1 ± 2.29 | 14.5 ± 3 | 24.1 ± 2.5 | lower uptake compared to the phen analogues 6 and 8 ([4]; CT‐26, 5 μM, 2 h): ca. 50%

From PMC9804910 (Chembiochem, 2022)
